From paper PMC3871636 (PLoS ONE, 2013)
Where a name gives a salt, the structure may show the parent alone.

Tests used:
[1] = molecular target: T1, double-labeled CYP3A4 C377/C468-DY/ER (Homo sapiens, UniProt P08684, S18F, form not given); test: Steady-state LRET titration (delayed emission); type: binding; settings: Table S2, protein C377/C468-ER/DY; for E (LRET efficiency with ligand), steady-state measurements: 1-PB 40 µM, ANF 100 µM, BCT 2.5 µM, cholesterol 100 µM, testosterone 100 µM; for R (interprobe distance with ligand), steady-state measurements / ΔR, steady-state measurements: same ligand concentrations
T1 sequence (P08684 13-503 S18F, form open): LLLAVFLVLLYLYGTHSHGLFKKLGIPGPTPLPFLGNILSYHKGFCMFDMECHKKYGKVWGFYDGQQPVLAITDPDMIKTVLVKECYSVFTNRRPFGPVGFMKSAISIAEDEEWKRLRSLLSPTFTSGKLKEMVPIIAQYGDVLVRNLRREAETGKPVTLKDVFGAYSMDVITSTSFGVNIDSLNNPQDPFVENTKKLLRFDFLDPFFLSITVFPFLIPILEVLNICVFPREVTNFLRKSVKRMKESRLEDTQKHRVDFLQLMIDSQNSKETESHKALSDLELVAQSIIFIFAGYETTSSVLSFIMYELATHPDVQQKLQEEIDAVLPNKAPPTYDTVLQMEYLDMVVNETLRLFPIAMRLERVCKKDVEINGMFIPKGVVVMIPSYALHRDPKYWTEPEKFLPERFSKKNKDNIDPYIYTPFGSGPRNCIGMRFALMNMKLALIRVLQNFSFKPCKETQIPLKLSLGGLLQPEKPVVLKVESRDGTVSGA
Procedure: (§1) All absorbance and fluorescence assays (including the time-resolved fluorescence measurements) were performed at a protein concentration ≤1 µM at 25°C with continuous stirring. Absorbance spectra were recorded with an S2000 rapid scanning CCD spectrometer (Ocean Optics). Ligand binding assays were done in 100 mM Na-Hepes buffer, pH 7.4, containing 0.5 mM EDTA.
(§2) Fluorescence-based ligand binding assays were done under anaerobic conditions. Anaerobiosis was achieved using an oxygen-scavenging system consisting of protecatechuate-3,4-dioxygenase (0.5 units/ml) and 5 mM protocatechuic acid. The steady state and time-resolved phosphorescence measurements were performed with the use of a Cary Eclipse fluorescence spectrophotometer (Varian/Agilent Technologies). The excitation wavelength was set to 540 nm. Spectra were taken from 650 to 860 nm with 100 µs delay.
(§3) Quantitative interpretation of LRET results was also based on the use of PCA applied to a series of emission spectra normalized on integral intensity. […] Intensity of the donor and acceptor fluorescence obtained in this way were used in determination of the efficiency of steady-state LRET using the equation [drawing 1] (Eq.1) where I ad is emission intensity of the acceptor, I da is the residual donor emission in the presence of acceptor (I da), Φ a and Φ d are the quantum yield of the fluorescence of acceptor and the quantum yield of the phosphorescence of donor, respectively.
(§4) Distances were calculated using the equation: [drawing 3] (Eq.3) where R 0 is the Förster distance, and R is the distance between the donor and acceptor. R 0 was calculated with the use of PhotoChemCad software. In these calculations, we used the values of the orientation factor (κ^2) and the refractive index (n) of 0.667 and 1.4, respectively.
(§5) When fitting the results of titration experiments, where the changes in the monitored signal A S (fraction of the enzyme in the high-spin state, intensity or the lifetime of the donor phosphorescence at a given substrate concentration) were assumed to be proportional to [ES], this equation was complemented with the offset A 0 and the scaling factor A max to yield the following relationship: [drawing 5] (Eq.5)

[2] = molecular target: CYP3A4 (double-labeled (C64/C468)-DY/ER) (Homo sapiens, UniProt P08684, form not given/S18F); test: Steady-state LRET titration (delayed emission); type: binding; settings: human, purified double-labeled CYP3A4 (C64/C468)-DY/ER protein, pH 7.4; (C64/C468)-DY/ER; LRET titration; read-out: K d, steady-state fluorescence
Sequence of CYP3A4 (double-labeled (C64/C468)-DY/ER) (P08684 13-503 S18F, form open): as above
Procedure: as §1, §2, §3, §4, §5

[3] = molecular target: double-labeled CYP3A4 (C64/C468)-ER/DY (Homo sapiens, UniProt P08684, S18F, form not given); test: Steady-state LRET titration (delayed emission); type: binding; settings: for ΔR (change in interprobe distance), steady-state fluorescence / ΔE (change in LRET efficiency), steady-state fluorescence: (C64/C468)-ER/DY; for ΔE (change in LRET efficiency), steady-state fluorescence: from maximal relative change in donor intensity; for E (LRET efficiency with ligand), steady-state measurements / R (interprobe distance with ligand), steady-state measurements / ΔR, steady-state measurements: Table S2, C64/C468-ER/DY; for E (LRET efficiency with ligand), steady-state measurements: 1-PB 40 µM, ANF 100 µM, BCT 2.5 µM, cholesterol 100 µM, testosterone 100 µM; for R (interprobe distance with ligand), steady-state measurements / ΔR, steady-state measurements: same ligand concentrations
Sequence of double-labeled CYP3A4 (C64/C468)-ER/DY (P08684 13-503 S18F, form open): as above
Procedure: as §1, §2, §3, §4, §5

[4] = molecular target: double-labeled CYP3A4 (C64/C468)-DY/ER (Homo sapiens, UniProt P08684, S18F, form not given); test: Steady-state LRET titration (delayed emission); type: binding; settings: for ΔR (change in interprobe distance), steady-state fluorescence / ΔE (change in LRET efficiency), steady-state fluorescence: (C64/C468)-DY/ER; for ΔE (change in LRET efficiency), steady-state fluorescence: from maximal relative change in donor intensity; for E (LRET efficiency with ligand), steady-state measurements / R (interprobe distance with ligand), steady-state measurements / ΔR, steady-state measurements: Table S2, C64/C468-DY/ER; for E (LRET efficiency with ligand), steady-state measurements: 1-PB 40 µM, ANF 100 µM, BCT 2.5 µM, cholesterol 100 µM, testosterone 100 µM; for R (interprobe distance with ligand), steady-state measurements / ΔR, steady-state measurements: same ligand concentrations
Sequence of double-labeled CYP3A4 (C64/C468)-DY/ER (P08684 13-503 S18F, form open): as above
Procedure: as §1, §2, §3, §4, §5

[5] = molecular target: T1, double-labeled CYP3A4 C377/C468-DY/ER; test: Time-resolved LRET (phosphorescence lifetime measurements); settings: for τ1 (phosphorescence decay time with ligand) / F1 (fraction of first exponential) / τ2 (phosphorescence decay time with ligand) / τav (average phosphorescence lifetime with ligand): Table S1, protein (C377/C468)-ER/DY; for τ1 (phosphorescence decay time with ligand) / E (LRET efficiency with ligand), lifetime measurements: 1-PB 40 µM, ANF 100 µM, BCT 2.5 µM, cholesterol 100 µM, testosterone 100 µM; for τ1 (phosphorescence decay time with ligand): bi-exponential fit; for F1 (fraction of first exponential) / τ2 (phosphorescence decay time with ligand) / τav (average phosphorescence lifetime with ligand) / R (interprobe distance with ligand), lifetime measurements / ΔR, lifetime measurements: same ligand concentrations; for E (LRET efficiency with ligand), lifetime measurements / R (interprobe distance with ligand), lifetime measurements / ΔR, lifetime measurements: Table S2, protein C377/C468-ER/DY
Description: The excitation wavelength was set to 540 nm.

[6] = molecular target: CYP3A4 (C377/C468 mutant) (Homo sapiens, UniProt P08684, form not given/S18F); test: Ligand-induced spin shift, absorbance titration; type: binding; settings: human, purified CYP3A4(C377/C468) mutant protein, pH 7.4; read-out: K D or S 50
Sequence of CYP3A4 (C377/C468 mutant) (P08684 13-503 S18F, form open): as above
Procedure: as §1
(§6) Absorbance spectra obtained in titration experiments were analyzed with a principal component analysis (PCA) procedure complemented with least-square approximation of the principal vectors with a combination of the prototypical spectra of the CYP3A4 low-spin, high-spin and Type II-substrate-bound ferric CYP3A4 P450 states as described, [31].
as §5

CYP3A4 (C64/C468 mutant) = CYP3A4 (C64/C468 mutant) (Homo sapiens, UniProt P08684, form not given/S18F); test: Ligand-induced spin shift, absorbance titration; type: binding; settings: human, purified CYP3A4(C64/C468) mutant protein, pH 7.4; read-out: K D or S 50
Sequence of CYP3A4 (C64/C468 mutant) (P08684 13-503 S18F, form open): as above
Procedure: as §1, §6, §5

[7] = molecular target: T2, double-labeled CYP3A4 C64/C121-DY/ER (Homo sapiens, UniProt P08684, A121C/C239S/C377S/C468A/C98S/S18F); test: Time-resolved LRET (phosphorescence lifetime measurements); settings: for τ1 (phosphorescence decay time with ligand) / F1 (fraction of first exponential) / τ2 (phosphorescence decay time with ligand) / τav (average phosphorescence lifetime with ligand): Table S1, protein (C64/C121)-ER/DY; for τ1 (phosphorescence decay time with ligand): bi-exponential fit; for F1 (fraction of first exponential) / τ2 (phosphorescence decay time with ligand) / τav (average phosphorescence lifetime with ligand) / R (interprobe distance with ligand), lifetime measurements / ΔR, lifetime measurements: same ligand concentrations
T2 sequence (P08684 with tags, fused parts or gaps S18F/C98S/A121C/C239S/C377S/C468A limits assumed): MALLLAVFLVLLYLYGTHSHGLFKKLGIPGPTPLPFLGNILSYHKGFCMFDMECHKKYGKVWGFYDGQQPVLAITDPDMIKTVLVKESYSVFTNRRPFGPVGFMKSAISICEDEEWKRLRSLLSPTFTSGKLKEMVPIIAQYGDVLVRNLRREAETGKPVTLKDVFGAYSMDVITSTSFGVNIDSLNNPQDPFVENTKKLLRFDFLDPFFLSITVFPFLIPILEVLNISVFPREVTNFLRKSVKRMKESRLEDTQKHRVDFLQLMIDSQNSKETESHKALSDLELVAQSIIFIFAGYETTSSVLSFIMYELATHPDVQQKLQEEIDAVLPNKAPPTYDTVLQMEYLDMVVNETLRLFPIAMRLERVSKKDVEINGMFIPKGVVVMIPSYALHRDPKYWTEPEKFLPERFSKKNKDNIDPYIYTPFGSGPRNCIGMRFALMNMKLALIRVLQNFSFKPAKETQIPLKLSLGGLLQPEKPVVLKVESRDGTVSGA
Procedure: as §1, §2
The treatment of the time-resolved decay traces was performed using a bi-exponential approximation. The efficiency of time-resolved LRET was calculated using the equation [drawing 2] (Eq.2)
In this equation τda and τd designate the average lifetime of the excited state of the donor in the presence and absence of the acceptor, respectively. These average lifetimes are determined as τ = α1τ1+α2τ2, where τ1,2 and α1,2 stay for the lifetime and the relative amplitude of each of the two exponential terms. In our calculations of the lifetime in double-labeled C64/C468, C377/C468 and C64/C121 proteins we used the lifetimes of phosphorescence measured with the respective proteins labeled with ERIA at a label:protein ratio 2∶1 as the estimates of τd.
as §4

[8] = molecular target: T2, double-labeled CYP3A4 C64/C121-DY/ER; test: Steady-state LRET titration (delayed emission); settings: Table S2, protein C64/C121-ER/DY; for R (interprobe distance with ligand), steady-state measurements / ΔR, steady-state measurements: same ligand concentrations
Procedure: as §1, §2, §3, §4, §5

[9] = 1-PB 40 µM, ANF 100 µM, BCT 2.5 µM, cholesterol 100 µM, testosterone 100 µM
[10] = Table S2, protein C64/C121-ER/DY

SMILES | R (interprobe distance with ligand), steady-state measurements [1] [Å] | ΔR, steady-state measurements [1] [Å] | Kd [2] [µM] | ΔR (change in interprobe distance), steady-state fluorescence [3] [Å] | R (interprobe distance with ligand), steady-state measurements [3] [Å] | ΔR, steady-state measurements [3] [Å] | ΔR (change in interprobe distance), steady-state fluorescence [4] [Å] | R (interprobe distance with ligand), steady-state measurements [4] [Å] | ΔR, steady-state measurements [4] [Å] | τ1 (phosphorescence decay time with ligand) [5] [µs] | F1 (fraction of first exponential) [5] [%] | τ2 (phosphorescence decay time with ligand) [5] [µs] | τav (average phosphorescence lifetime with ligand) [5] [µs] | R (interprobe distance with ligand), lifetime measurements [5] [Å] | ΔR, lifetime measurements [5] [Å] | Kd [6] [µM] | Kd (CYP3A4 (C64/C468 mutant)) [µM] | F1 (fraction of first exponential) [7] [%] | τ2 (phosphorescence decay time with ligand) [7] [µs] | τav (average phosphorescence lifetime with ligand) [7] [µs] | further results
OCCCCc1ccc2ccc3cccc4ccc1c2c34 [1-PB, 1-pyrenebutanol] | 44.5 ± 0.7 | −0.2 ± 0.7 | 22.2 ± 4 | −0.3±0.8 | 38.8 ± 0.8 | −0.3 ± 0.8 | 0.9±1.8 | 35.8 ± 1.8 | 0.9 ± 1.8 | 45 ± 5 | 30 ± 3 | 149 ± 5 | 118 ± 2 | 38.3 ± 0.3 | 1.6 ± 0.3 | 14 ± 2 | 5.7 ± 1.7 | 35 ± 1 | 199 ± 12 | 149 ± 9 | E (LRET efficiency with ligand), steady-state measurements [1]: 16± 1%; ΔE (change in LRET efficiency), steady-state fluorescence [3]: 1±1%; E (LRET efficiency with ligand), steady-state measurements [3]: 30 ± 1%; ΔE (change in LRET efficiency), steady-state fluorescence [4]: −4±1%; E (LRET efficiency with ligand), steady-state measurements [4]: 41 ± 1%; E (LRET efficiency with ligand), lifetime measurements [5]: 35 ± 1%; τ1 (phosphorescence decay time with ligand) [7, 9]: 57 ± 1 µs; E (LRET efficiency with ligand), lifetime measurements ([7]; Table S2, protein C64/C121-ER/DY, 1-PB 40 µM, ANF 100 µM, BCT 2.5 µM, cholesterol 100 µM, testosterone 100 µM): 46 ± 5%; R (interprobe distance with ligand), lifetime measurements [7, 10]: 35.4 ± 0.8 Å; ΔR, lifetime measurements [7, 10]: 0.4 ± 0.8 Å; E (LRET efficiency with ligand), steady-state measurements [8, 9]: 18 ± 1%; R (interprobe distance with ligand), steady-state measurements [8]: 43.4 ± 0.7 Å; ΔR, steady-state measurements [8]: 0.8 ± 0.7 Å
O=c1cc(-c2ccccc2)oc2c1ccc1ccccc12 [ANF, α-naphthoflavone] | 45.2 ± 0.1 | 0.5 ± 0.1 | 9.1 ± 2.9 | 2.1±0.9 | 41.2 ± 0.9 | 2.1 ± 0.9 | 3.9±1.7 | 38.8 ± 1 | 3.9 ± 1.7 | 42 ± 10 | 28 ± 5 | 188 ± 18 | 147 ± 8 | 43.9 ± 2.3 | 7.1 ± 2.3 | 6.2 ± 1.2 | 5.1 ± 1.5 | 43 ± 7 | 232 ± 22 | 159 ± 7 | E (LRET efficiency with ligand), steady-state measurements [1]: 14 ± 0%; ΔE (change in LRET efficiency), steady-state fluorescence [3]: −8±4%; E (LRET efficiency with ligand), steady-state measurements [3]: 23 ± 2%; ΔE (change in LRET efficiency), steady-state fluorescence [4]: −18±1%; E (LRET efficiency with ligand), steady-state measurements [4]: 29 ± 1%; E (LRET efficiency with ligand), lifetime measurements [5]: 19 ± 4%; R (interprobe distance with ligand), lifetime measurements [7, 10]: 36.4 ± 0.5 Å; ΔR, lifetime measurements [7, 10]: 1.3 ± 0.5 Å; R (interprobe distance with ligand), steady-state measurements [8]: 43.4 ± 0.1 Å; ΔR, steady-state measurements [8]: 1.1 ± 0.1 Å
CC(C)C[C@H]1C(=O)N2CCC[C@H]2[C@]2(O)O[C@](NC(=O)[C@@H]3C=C4c5cccc6[nH]c(Br)c(c56)C[C@H]4N(C)C3)(C(C)C)C(=O)N12 [Bromocriptine, Bromocriptine mesylate] | 44.7 ± 0.1 | 0.0 ± 0.1 | 0.7 ± 0.1 | 0.5±1.6 | 39.6 ± 1.6 | 0.5 ± 1.6 | 0.2±0.2 | 35.1 ± 0 | 0.2 ± 0.2 | 25 ± 9 | 20 ± 4 | 129 ± 6 | 108 ± 3 | 36.8± 0.4 | 0.0 ± 0.4 | 0.96 ± 0.2 | 0.34 ± 0.1 | 49 ± 5 | 242 ± 15 | 159 ± 2 | increase in the interprobe distance ([7]; C64/C121-DY/ER, stated for both steady-state and lifetime experiments): 1.3 Å; τ1 (phosphorescence decay time with ligand) [7, 9]: 75 ± 13 µs; R (interprobe distance with ligand), lifetime measurements [7, 10]: 36.4 ± 0.1 Å; ΔR, lifetime measurements [7, 10]: 1.3 ± 0.1 Å; R (interprobe distance with ligand), steady-state measurements [8]: 43.6 ± 0.9 Å; ΔR, steady-state measurements [8]: 1.0 ± 0.9 Å
